Source: patent publication US8791132B2, “Compounds and methods for treatment of hypertension” (Medivation Technologies, Inc., priority 2011, dated 2014)
Values joined by “and” are separate entries in the source; they are usually repeats but may differ in a detail not shown here. Equal entries are not always repeated. Where two headings read alike, the source gives them in different places.

Experiments:
[1] = biological target: T1, human recombinant adrenergic α2B receptor (Homo sapiens, UniProt P18089); test: Radioligand binding, adrenergic α2B ([3H]Rauwolscine)
T1 construct: expressed in transfected cells; host or cells: CHO-K1
T1 sequence (P18089 1-450): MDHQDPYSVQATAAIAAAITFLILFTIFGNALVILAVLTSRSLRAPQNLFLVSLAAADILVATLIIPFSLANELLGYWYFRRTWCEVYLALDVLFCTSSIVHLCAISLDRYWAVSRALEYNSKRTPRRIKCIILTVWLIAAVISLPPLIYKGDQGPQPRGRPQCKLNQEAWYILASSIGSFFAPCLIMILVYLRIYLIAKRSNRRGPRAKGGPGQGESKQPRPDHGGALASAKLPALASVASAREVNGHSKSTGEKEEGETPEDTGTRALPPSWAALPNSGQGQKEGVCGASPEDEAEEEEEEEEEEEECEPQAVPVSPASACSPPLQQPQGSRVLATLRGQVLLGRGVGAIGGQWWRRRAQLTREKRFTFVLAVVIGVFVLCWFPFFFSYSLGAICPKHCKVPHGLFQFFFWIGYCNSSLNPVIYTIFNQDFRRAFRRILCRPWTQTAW
How it was run: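 Receptor expressed in CHO-K1 cells, assayed in 50 mM Tris-HCl pH 7.4 with 12.5 mM MgCl2, 1 mM EDTA and 0.2% BSA. Compounds were incubated with 2.5 nM [3H]Rauwolscine for 60 min at 25° C; 10 μM Prazosin defined non-specific binding. Filter counting gave percent inhibition of specific binding.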

[2] = biological target: T2, human recombinant adrenergic α1D receptor (Homo sapiens, UniProt P25100); test: Radioligand binding, adrenergic α1D ([3H]Prazosin); details: for Percentage inhibition of ligand binding, Adrenergic α1D: 0.1 µM
T2 construct: expressed in transfected cells; host or cells: HEK-293
T2 sequence (P25100 1-572): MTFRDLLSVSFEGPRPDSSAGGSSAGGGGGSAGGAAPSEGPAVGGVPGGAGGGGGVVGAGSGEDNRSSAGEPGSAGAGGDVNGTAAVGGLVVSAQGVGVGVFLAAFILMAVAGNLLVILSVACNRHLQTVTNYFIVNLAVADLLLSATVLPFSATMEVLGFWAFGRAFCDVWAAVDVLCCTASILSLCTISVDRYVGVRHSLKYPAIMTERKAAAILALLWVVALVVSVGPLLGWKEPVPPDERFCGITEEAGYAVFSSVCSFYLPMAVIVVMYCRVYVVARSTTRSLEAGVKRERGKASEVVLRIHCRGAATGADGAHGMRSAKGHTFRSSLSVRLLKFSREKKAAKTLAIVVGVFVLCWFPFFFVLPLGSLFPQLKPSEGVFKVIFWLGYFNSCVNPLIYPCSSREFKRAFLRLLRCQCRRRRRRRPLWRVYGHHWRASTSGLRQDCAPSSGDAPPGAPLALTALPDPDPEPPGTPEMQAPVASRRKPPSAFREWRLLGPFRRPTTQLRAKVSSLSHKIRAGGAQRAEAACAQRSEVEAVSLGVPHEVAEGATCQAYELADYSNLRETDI
Procedure: Compounds were incubated with 0.6 nM [3H]Prazosin for 60 min at 25° C. Non-specific binding was estimated in the presence of 10 μM phentolamine. Receptor proteins were filtered and washed, the filters were then counted to determine [3H]Prazosin specifically bound. […] Biochemical assay results are presented as the percent inhibition of specific binding in Table B1.

[3] = biological target: T3, rat adrenergic α1B receptor (Rattus norvegicus, UniProt P15823); test: Radioligand binding, adrenergic α1B ([3H]Prazosin)
T3 construct: rat adrenergic α1B receptor obtained from Wistar Rat liver; from tissue; host or cells: Wistar rat liver
T3 sequence (P15823 1-515): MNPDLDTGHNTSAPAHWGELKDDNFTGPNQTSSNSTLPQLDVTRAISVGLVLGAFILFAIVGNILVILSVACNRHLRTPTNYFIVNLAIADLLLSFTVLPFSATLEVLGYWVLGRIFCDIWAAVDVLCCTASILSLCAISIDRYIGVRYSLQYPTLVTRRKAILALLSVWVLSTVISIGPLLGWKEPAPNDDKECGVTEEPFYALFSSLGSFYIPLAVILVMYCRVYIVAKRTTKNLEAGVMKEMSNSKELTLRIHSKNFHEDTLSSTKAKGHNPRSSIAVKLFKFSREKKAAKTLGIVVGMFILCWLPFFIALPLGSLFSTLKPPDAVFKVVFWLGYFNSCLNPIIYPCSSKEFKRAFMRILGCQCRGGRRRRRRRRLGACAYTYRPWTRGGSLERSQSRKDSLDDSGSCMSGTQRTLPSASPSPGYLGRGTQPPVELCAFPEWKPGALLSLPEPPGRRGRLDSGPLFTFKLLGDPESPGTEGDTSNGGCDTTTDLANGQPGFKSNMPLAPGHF
How it was run: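 Rat α1B receptor from Wistar rat liver was incubated with 0.25 nM [3H]prazosin for 60 min at 25 °C in 50 mM Tris-HCl, pH 7.4, 0.5 mM EDTA. Non-specific binding was defined with 10 μM phentolamine. Bound radioligand was measured by filtration and counting, reported as percent inhibition of specific binding.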

[4] = biological target: T4, human recombinant adrenergic α2A receptor (Homo sapiens, UniProt P08913); test: Radioligand binding, adrenergic α2A ([3H]MK-912)
T4 construct: expressed in transfected cells; host or cells: insect Sf9 cells
T4 sequence (P08913 1-465): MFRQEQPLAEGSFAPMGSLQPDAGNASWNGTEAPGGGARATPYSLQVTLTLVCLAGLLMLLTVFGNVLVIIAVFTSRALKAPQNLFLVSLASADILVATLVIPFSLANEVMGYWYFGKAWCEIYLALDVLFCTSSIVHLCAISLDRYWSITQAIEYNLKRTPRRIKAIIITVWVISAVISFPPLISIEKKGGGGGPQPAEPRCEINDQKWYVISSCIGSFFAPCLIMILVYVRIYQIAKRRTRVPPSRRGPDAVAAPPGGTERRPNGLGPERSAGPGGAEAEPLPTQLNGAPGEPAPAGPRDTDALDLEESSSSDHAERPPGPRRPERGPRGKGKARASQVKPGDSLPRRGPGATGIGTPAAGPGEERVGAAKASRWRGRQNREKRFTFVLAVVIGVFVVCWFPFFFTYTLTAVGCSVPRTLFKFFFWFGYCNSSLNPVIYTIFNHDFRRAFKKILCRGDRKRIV
How it was run: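 Sf9 membranes, 1 nM [3H]MK-912, 60 min, 25 °C, Tris-HCl pH 7.4/MgCl2/EDTA buffer. NSB: 10 μM WB-4101. Filtration, counting; % inhibition of specific binding.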

[5] = 0.1 μM compound, read-out: Percentage inhibition of ligand binding, Adrenergic α2B
[6] = 0.1 μM compound, read-out: Percentage inhibition of ligand binding, Adrenergic α1D
[7] = 0.1 μM compound, read-out: Percentage inhibition of ligand binding, Adrenergic α1B
[8] = 0.1 μM compound, read-out: Percentage inhibition of ligand binding, Adrenergic α2A
[9] = read-out: Percentage inhibition of ligand binding, Adrenergic α2B (0.1 μM), compound at 0.1 μM, [3H]Rauwolscine, repeat datapoints each shown
[10] = read-out: Percentage inhibition of ligand binding, Adrenergic α1D (0.1 μM), compound at 0.1 μM, [3H]Prazosin, repeat datapoints each shown
[11] = read-out: Percentage inhibition of ligand binding, Adrenergic α1B (0.1 μM), compound at 0.1 μM, [3H]Prazosin, repeat datapoints each shown
[12] = read-out: Percentage inhibition of ligand binding, Adrenergic α2A (0.1 μM), compound at 0.1 μM, [3H]MK-912, repeat datapoints each shown

inhibition at 0.1 µM [1, 5] [%]	inhibition at 0.1 µM [2, 6] [%]	inhibition at 0.1 µM [3, 7] [%]	inhibition at 0.1 µM [4, 8] [%]	inhibition at 0.1 µM [1, 9] [%]	inhibition at 0.1 µM [2, 10] [%]	inhibition at 0.1 µM [3, 11] [%]	inhibition at 0.1 µM [4, 12] [%]	Structure (SMILES)	other results
98	82	95	98					C/C(=C/n1c2c(c3cc(C)ccc31)CCN(C)CC2)c1cccc(F)c1 [compound 249]	
96	43	55	63					Cc1ccc2c(c1)c1c(n2CC(C)c2ccncc2)CCN(C)C1 (stereo not drawn) [compound 255]	
76	66	50	96					C/C(=C\n1c2c(c3cc(C)ccc31)CN(C)CC2)c1ccc2ccccc2c1 [compound 270]	
				98	25	67	94	C/C(=C\n1c2c(c3cc(C)ccc31)CCN(C)CC2)c1ccc(Cl)c(Cl)c1 [compound 238]	
				80	16	65	56	CN1CCc2c(n(CC(C)(O)c3ccc(F)cc3)c3ccc(Cl)cc23)CC1 (stereo not drawn) [compound 221]	
84	36	29	87					Cc1ccc2c(c1)c1c(n2C2=C(c3ccc(F)cc3)CCC2)CCN(C)C1 [compound 301, 5-(2-(4-fluorophenyl)cyclopent-1-enyl)-2,8-dimethyl-2,3,4,5-tetrahydro-1H-pyrido[4,3-b]indole]	
105	45	58	90					C/C(=C\n1c2c(c3cc(C)ccc31)CN(C)CC2)c1ccc(Cl)c(Cl)c1 [compound 243]	Ki [4]: 3.86 nM; inhibition at 0.03 µM ([4]; 0.03 μM compound, read-out: Percentage inhibition of ligand binding, Adrenergic α2A): 73%; Percentage inhibition of ligand binding, Adrenergic α2A ([4]; 0.1 μM compound, 0.1 µM): 98%
				85	34	69	29	C/C(=C\n1c2c(c3cc(C)ccc31)CCN(C)CC2)c1ccncc1 [compound 99]	
				87	3	12	29	C/C(=C\n1c2c(c3cc(C)ccc31)CN(C)CC2)c1cccc2ccccc12 [compound 113]	
				94	55	95	96	CN1CCc2c(c3ccccc3n2CC(C)(O)c2ccncc2)C1 (stereo not drawn) [II-171]	
			60					Cc1ccc2c(c1)c1c(n2CC(C)c2ccc(C)nc2)CCN(C)C1 (single isomer, unassigned) [289a]	Percentage inhibition of ligand binding, Adrenergic α1D ([2]; 0.1 μM compound): 57%; Percentage inhibition of ligand binding, Adrenergic α1B ([3]; 0.1 μM compound, 0.1 µM): 51%
								CC(Cn1c2c(c3ccccc31)CN(C)CC2)c1ccc(F)cc1 (single isomer, unassigned) [272b]	Percentage inhibition of ligand binding, Adrenergic α1D ([2]; 0.1 μM compound): 36%; Percentage inhibition of ligand binding, Adrenergic α1B ([3]; 0.1 μM compound, 0.1 µM): 30%; Percentage inhibition of ligand binding, Adrenergic α2A ([4]; 0.1 μM compound, 0.1 µM): 68%
								Cc1ccc2c(c1)c1c(n2CC(C)c2ccc(F)cc2)CCN(C)C1 (single isomer, unassigned) [288b]	Percentage inhibition of ligand binding, Adrenergic α1D ([2]; 0.1 μM compound): 17%; Percentage inhibition of ligand binding, Adrenergic α1B ([3]; 0.1 μM compound): 39%; Percentage inhibition of ligand binding, Adrenergic α2A ([4]; 0.1 μM compound): 67%
								Cc1ccc2c(c1)c1c(n2C2=C(c3cn[nH]c3)CCC2)CCN(C)C1 [compound 77, 5-(2-(1H-pyrazol-4-yl)cyclopent-1-enyl)-2,8-dimethyl-2,3,4,5-tetrahydro-1H-pyrido[4,3-b]indole]	inhibition at 0.03 µM ([1]; compound at 0.03 μM, [3H]Rauwolscine, repeat assays, each datapoint shown, read-out: Percentage inhibition of ligand binding, Adrenergic α2B): 84%; inhibition at 0.1 µM ([1]; compound at 0.1 μM, [3H]Rauwolscine, repeat assays, each datapoint shown, read-out: Percentage inhibition of ligand binding, Adrenergic α2B): 91%; inhibition at 0.1 µM ([2]; compound at 0.1 μM, [3H]Prazosin, repeat assays, each datapoint shown, read-out: Percentage inhibition of ligand binding, Adrenergic α1D): 10%; Percentage inhibition of ligand binding, Adrenergic α1B ([3]; compound at 0.1 μM, [3H]Prazosin, repeat assays, each datapoint shown, 0.1 µM): 6%; inhibition at 0.1 µM ([3]; compound at 0.1 μM, [3H]Prazosin, repeat assays, each datapoint shown, read-out: Percentage inhibition of ligand binding, Adrenergic α1B): 5%

Structure (SMILES)	inhibition at 0.1 µM [1, 5] [%]	inhibition at 0.1 µM [2, 6] [%]	inhibition at 0.1 µM [3, 7] [%]	inhibition at 0.1 µM [4, 8] [%]	inhibition at 0.1 µM [1, 9] [%]	inhibition at 0.1 µM [2, 10] [%]	inhibition at 0.1 µM [3, 11] [%]	inhibition at 0.1 µM [4, 12] [%]	other results
Cc1ccc2c(c1)c1c(n2CCc2ccccc2)CCN(C)C1 [compound 200]						69	83	92	inhibition at 0.03 µM ([3]; read-out: Percentage inhibition of ligand binding, Adrenergic α1B (0.03 μM), compound at 0.03 μM, [3H]Prazosin, repeat datapoints each shown): 63%; Ki [4]: 1.63 nM and 3.21 nM; inhibition at 0.03 µM ([4]; read-out: Percentage inhibition of ligand binding, Adrenergic α2A (0.03 μM), compound at 0.03 μM, [3H]MK-912, repeat datapoints each shown): 81%
